Experiment: xn = mol fraction of the nth substance listed
Conditions: Vibrating tube method, x2 = 0.9503

O=S=O [sulfur dioxide] + O=C=O
Conditions	mass density [kg/m3]
322.39 K, 5017 kPa, Gas	111.5
322.39 K, 5528 kPa, Gas	127.9
322.39 K, 6019 kPa, Gas	145.7
322.39 K, 7009 kPa, Fluid (supercritical or subcritical phases)	189.5
322.39 K, 7504 kPa, Fluid (supercritical or subcritical phases)	218.4
322.4 K, 749 kPa, Gas	13.6
322.4 K, 1002 kPa, Gas	17.9
322.4 K, 1509 kPa, Gas	27.5
322.4 K, 2511 kPa, Gas	48.1
322.4 K, 3008 kPa, Gas	58.8
322.41 K, 6514 kPa, Fluid (supercritical or subcritical phases)	166.3
322.41 K, 8037 kPa, Fluid (supercritical or subcritical phases)	254.6
322.41 K, 8521 kPa, Fluid (supercritical or subcritical phases)	307.2
322.41 K, 9006 kPa, Fluid (supercritical or subcritical phases)	371
322.45 K, 9501 kPa, Fluid (supercritical or subcritical phases)	460.8
322.46 K, 9992 kPa, Fluid (supercritical or subcritical phases)	538
322.46 K, 30511 kPa, Fluid (supercritical or subcritical phases)	905.8
322.46 K, 34988 kPa, Fluid (supercritical or subcritical phases)	930.2
322.46 K, 35500 kPa, Fluid (supercritical or subcritical phases)	933
322.46 K, 36061 kPa, Fluid (supercritical or subcritical phases)	935.4
322.46 K, 36509 kPa, Fluid (supercritical or subcritical phases)	937.7
322.46 K, 37005 kPa, Fluid (supercritical or subcritical phases)	940.1
322.46 K, 37561 kPa, Fluid (supercritical or subcritical phases)	942.4
322.47 K, 10501 kPa, Fluid (supercritical or subcritical phases)	585
322.47 K, 29929 kPa, Fluid (supercritical or subcritical phases)	902.4
322.47 K, 31027 kPa, Fluid (supercritical or subcritical phases)	908.9
322.47 K, 31517 kPa, Fluid (supercritical or subcritical phases)	912
322.47 K, 32536 kPa, Fluid (supercritical or subcritical phases)	917.5
322.47 K, 33070 kPa, Fluid (supercritical or subcritical phases)	920.6
322.47 K, 33539 kPa, Fluid (supercritical or subcritical phases)	923.2
322.47 K, 34062 kPa, Fluid (supercritical or subcritical phases)	925.5
322.47 K, 34511 kPa, Fluid (supercritical or subcritical phases)	928
322.47 K, 38091 kPa, Fluid (supercritical or subcritical phases)	945
322.47 K, 38434 kPa, Fluid (supercritical or subcritical phases)	946.6
322.47 K, 39200 kPa, Fluid (supercritical or subcritical phases)	950
322.47 K, 40947 kPa, Fluid (supercritical or subcritical phases)	956.3
322.48 K, 20496 kPa, Fluid (supercritical or subcritical phases)	829.2
322.48 K, 23049 kPa, Fluid (supercritical or subcritical phases)	853.3
322.48 K, 25500 kPa, Fluid (supercritical or subcritical phases)	871.4
322.48 K, 27026 kPa, Fluid (supercritical or subcritical phases)	882.9
322.48 K, 28501 kPa, Fluid (supercritical or subcritical phases)	892.7
322.48 K, 32039 kPa, Fluid (supercritical or subcritical phases)	914.6
322.48 K, 39641 kPa, Fluid (supercritical or subcritical phases)	951.7
322.48 K, 40153 kPa, Fluid (supercritical or subcritical phases)	953.9
322.48 K, 40902 kPa, Fluid (supercritical or subcritical phases)	956.7
322.49 K, 11003 kPa, Fluid (supercritical or subcritical phases)	621.1
322.49 K, 18008 kPa, Fluid (supercritical or subcritical phases)	800.3
322.49 K, 19008 kPa, Fluid (supercritical or subcritical phases)	812.8
322.49 K, 20012 kPa, Fluid (supercritical or subcritical phases)	824.3
322.49 K, 21007 kPa, Fluid (supercritical or subcritical phases)	834.7
322.49 K, 21533 kPa, Fluid (supercritical or subcritical phases)	839.7
322.49 K, 22009 kPa, Fluid (supercritical or subcritical phases)	843.9
322.49 K, 22496 kPa, Fluid (supercritical or subcritical phases)	848.2
322.49 K, 23500 kPa, Fluid (supercritical or subcritical phases)	856.5
322.49 K, 24003 kPa, Fluid (supercritical or subcritical phases)	860.4
